Here are results for 19 molecules from patent publication US12448394B2, “Heterocyclic pyrazole derivatives as type III receptor tyrosine kinase inhibitors” (DEVELOPMENT CENTER FOR BIOTECHNOLOGY, priority 2019, dated 2025).

Like-named read-outs stand apart in the source and are kept apart here. Some results are limits rather than exact numbers.

Assay [1] relates to phosphorylation of FLT3 and its down-stream effector STAT5. Briefly: Western blotting of p-FLT3 and p-STAT5 in MV4-11 cells. It is filed as cell-based. To be noted: Homo sapiens; at 30 nM treatment, 3 hours, FLT3-ITD positive MV4-11 leukemia cells; read-out: inhibition activity against phosphorylation of FLT3 and its down-stream effector STAT5. The method, then: The potent compounds of formula (I) in EXAMPLE 2 were evaluated, by western blotting assay, for their cellular potencies against phosphorylation of FLT3 and its down-stream effector STAT5 in MV4-11 leukemia cell line with constitutive activation of FLT3 signaling. For western blotting experiments, MV4-11 cells were cultured in IMDM medium containing 0.1% FBS overnight. On the assay day, three million cells were treated with or without compounds for 3 hours in 15 mL tubes. Then, the whole cell lysates were harvested, following extraction by adding 2×SDS Sample Buffer and boiling on hot plate at 105° C. for 15 minutes. The resulting cell lysates were separated by SDS-PAGE electrophoresis and transferred to PVDF membrane. Protein expression was detected using immunoblot with corresponding primary antibody and secondary antibody following the standard procedures. Antibody against p-FLT3 (Tyr-591), anti-rabbit IgG HRP-linked secondary antibody, and anti-mouse IgG HRP-linked secondary antibody were purchased from Cell Signaling Technology. Antibody against p-STAT5 (Tyr-694) was purchased from BD biosciences. Antibody against actin was purchased from R&D system. […] Band intensities of western blot were also quantified by ChemiDoc™ MP Imaging System. Relative intensities of bandscorresponding to drug treatments at a single concentration (30 nM) were compared to the DMSO control group. The percentage (%) inhibition at each drug concentration was calculated using the formula: Percentage(%)inhibition=(1−Relative intensity)×100.
In general terms: In western blotting, separated proteins are transferred to a membrane and probed.

Assay [2] deals with HCC827 NSCLC cell with EGFR exon 19 deletion mutation. As to the kind of experiment: HCC827 cell proliferation assay (counter screen). It is filed as cell-based, human. To be noted: HCC827 cells, 72 hours treatment, CellTiter96, read-out: anti-proliferation activity HCC827 EGFR Exon19 del, IC50 ranking. The gist of the method: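 HCC827 cells (EGFR exon 19 deletion) were seeded at 8000 cells/well in RPMI1640 with 10% FBS, then exposed to increasing compound concentrations for 72 h at 37 °C. Viability was read by CellTiter96 AQueous One (MTS), absorbance 490 nm after 2–4 h.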

The test system of assay [3] is MV4-11 human acute myeloid leukemia cell with FLT3-ITD mutation. Briefly: MV4-11 cell proliferation assay (CellTiter 96). To be noted: MV4-11 cells, 72 hours treatment, CellTiter96, read-out: anti-proliferation activity MV4-11 (FLT3-ITD), IC50 ranking. It is filed as cell-based. The gist of the method: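 Cells seeded at 6500/well in IMDM with 10% heat-inactivated FBS, left overnight at 37 °C, 5% CO2, then exposed to increasing compound concentrations for 72 h. Viability read as absorbance at 490 nm after 2–4 h with CellTiter96 AQueous One reagent.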

Consider `Cn1ncc2ccc(-c3n[nH]c4c3Cc3sc(-c5ccc(CN6CCOCC6)cc5F)cc3-4)cc21` [Compound 32, 4-(3-fluoro-4-(3-(1-methyl-1H-indazol-6-yl)-1,4-dihydrothieno [2′,3′:4,5]cyclopenta [1,2-c]pyrazol-6-yl)benzyl)morpholine], for which the inhibition – broadly, the share of the control response that was lost under treatment – at 0.03 µM in assay [1] was over 50%. Besides, the IC50 is over 10000 nM in assay [2] (Homo sapiens) and 30 to 100 nM in assay [3] (Homo sapiens, MV4-11, 72 h).

Take `Cc1ccc(-c2cc3c(s2)Cc2c(-c4ccc5cnn(C)c5c4)n[nH]c2-3)cn1` [Compound 33, 3-(1-methyl-1H-indazol-6-yl)-6-(6-methylpyridin-3-yl)-1,4-dihydrothieno [2′,3′:4,5]cyclopenta [1,2-c]pyrazole]: in assay [1], the inhibition at 0.03 µM was over 50%. Moreover, the IC50 in assay [2] was over 10000 nM; in assay [3], 30 to 100 nM.

As to `Cn1ncc2ccc(-c3n[nH]c4c3Cc3sc(-c5ccc(C(=O)N6CCCCC6)cc5)cc3-4)cc21` [Compound 34, (4-(3-(1-methyl-1H-indazol-6-yl)-1,4-dihydro-thieno[2′,3′:4,5]cyclopenta [1,2-c]pyrazol-6-yl)phenyl)(piperidin-1-yl) methanone], the inhibition at 0.03 µM in assay [1] was over 50%. Further, the IC50 was over 10000 nM in assay [2] (Homo sapiens) and 30 to 100 nM in assay [3] (Homo sapiens, MV4-11, 72 h).

For the molecule `Cn1ncc2ccc(-c3n[nH]c4c3Cc3sc(-c5cccc(C(=O)N6CCOCC6)c5)cc3-4)cc21` [Compound 37, (3-(3-(1-methyl-1H-indazol-6-yl)-1,4-dihydro-thieno[2′,3′:4,5]cyclopenta [1,2-c]pyrazol-6-yl)phenyl)(morpholino) methanone], the inhibition at 0.03 µM in assay [1] is over 50%. In addition, the IC50 in assay [2] (Homo sapiens) was over 10000 nM; in assay [3] (Homo sapiens, MV4-11, 72 h) it was under 30 nM.

Consider `Cn1ncc2ccc(-c3n[nH]c4c3Cc3sc(-c5ccc(C(=O)N6CCCC6)cc5)cc3-4)cc21` [Compound 38, (4-(3-(1-methyl-1H-indazol-6-yl)-1,4-dihydro-thieno[2′,3′:4,5]cyclopenta [1,2-c]pyrazol-6-yl)phenyl)(pyrrolidin-1-yl) methanone], for which the inhibition at 0.03 µM in assay [1] was over 50%. The IC50 in assay [2] (Homo sapiens) was over 10000 nM; in assay [3] (Homo sapiens, MV4-11, 72 h) it was under 30 nM.

For the molecule `Cn1ncc2ccc(-c3n[nH]c4c3Cc3sc(-c5ccc(CN6CCSCC6)cc5)cc3-4)cc21` [Compound 39, 3-(1-methyl-1H-indazol-6-yl)-6-(4-(thiomorpho-linomethyl)phenyl)-1,4-dihydrothieno[2′,3′:4,5] cyclopenta[1,2-c]pyrazole], the inhibition at 0.03 µM in assay [1] was over 50%. In addition, the IC50 in assay [2] (Homo sapiens) is over 10000 nM; in assay [3] (Homo sapiens, MV4-11, 72 h), 30 to 100 nM.

For the molecule `Cn1ncc2ccc(-c3n[nH]c4c3Cc3sc(-c5cnc(C(=O)N6CCOCC6)nc5)cc3-4)cc21` [Compound 41, (5-(3-(1-methyl-1H-indazol-6-yl)-1,4-dihydrothieno[2′,3′:4,5]cyclopenta[1,2-c]pyrazol-6-yl)pyrimidin-2-yl) (morpholino)methanone], the inhibition at 0.03 µM in assay [1] was over 50%. Also, the IC50 was over 10000 nM in assay [2] (Homo sapiens) and under 30 nM in assay [3] (Homo sapiens, MV4-11, 72 h).

Regarding `CC(C)n1ncc2ccc(-c3n[nH]c4c3Cc3sc(-c5ccc(CN6CCOCC6)cc5)cc3-4)cc21` [Compound 42, 4-(4-(3-(1-isopropyl-1H-indazol-6-yl)-1,4-dihydro-thieno[2′,3′:4,5]cyclopenta [1,2-c]pyrazol-6-yl)benzyl)morpholine], in assay [1], the inhibition at 0.03 µM is over 50%. Moreover, the IC50 is over 10000 nM in assay [2] (Homo sapiens) and 30 to 100 nM in assay [3] (Homo sapiens, MV4-11, 72 h).

Consider `COc1cc(-c2cc3c(s2)Cc2c(-c4ccc5cnn(C)c5c4)n[nH]c2-3)ccc1C(=O)N1CCOCC1` [Compound 43, (2-methoxy-4-(3-(1-methyl-1H-indazol-6-yl)-1,4-dihydrothieno [2′,3′:4,5]cyclopenta [1,2-c]pyrazol-6-yl)phenyl)(morpholino) methanone], for which the inhibition at 0.03 µM in assay [1] was over 50%. In addition, the IC50 in assay [2] (Homo sapiens) is over 10000 nM; in assay [3] (Homo sapiens, MV4-11, 72 h) it was 30 to 100 nM.

As to `Cn1ncc2ccc(-c3n[nH]c4c3Cc3sc(-c5ccc(C(=O)N6CCOCC6)c(F)c5)cc3-4)cc21` [Compound 44, (2-fluoro-4-(3-(1-methyl-1H-indazol-6-yl)-1,4-dihydrothieno[2′,3′:4,5]cyclopenta[1,2-c]pyrazol-6-yl)phenyl)(morpholino) methanone], the inhibition at 0.03 µM in assay [1] was over 50%. The IC50 was over 10000 nM in assay [2] (Homo sapiens) and under 30 nM in assay [3] (Homo sapiens, MV4-11, 72 h).

On to `Cn1ncc2ccc(-c3n[nH]c4c3Cc3sc(-c5cnc(N)nc5)cc3-4)cc21` [Compound 45, 5-(3-(1-methyl-1H-indazol-6-yl)-1,4-dihydrothieno [2′,3′:4,5]cyclopenta[l,2-c]pyrazol-6-yl)pyrimidin-2-amine], for which, in assay [1], the inhibition at 0.03 µM is over 50%. Further, the IC50 is over 10000 nM in assay [2] (Homo sapiens) and under 30 nM in assay [3] (Homo sapiens, MV4-11, 72 h).

Regarding `Cn1cc(-c2cc3c(s2)Cc2c(-c4ccc5cnn(C)c5c4)n[nH]c2-3)cc1C(=O)N1CCOCC1` [Compound 46, (1-methyl-4-(3-(1-methyl-1H-indazol-6-yl)-1,4-dihydrothieno[2′,3′:4,5]cyclopenta[1,2-c]pyrazol-6-yl)-1H-pyrrol-2-yl) (morpholino)methanone], the inhibition at 0.03 µM in assay [1] is over 50%. In addition, the IC50 in assay [2] (Homo sapiens) was over 10000 nM; in assay [3] (Homo sapiens, MV4-11, 72 h), under 30 nM.

As to `Cn1ncc2ccc(-c3n[nH]c4c3Cc3sc(-c5ccc(S(=O)(=O)N6CCOCC6)cc5)cc3-4)cc21` [Compound 47, 4-((4-(3-(1-methyl-1H-indazol-6-yl)-1,4-dihydro-thieno[2′,3′:4,5]cyclopenta [1,2-c]pyrazol-6-yl)phenyl)sulfonyl) morpholine], in assay [1], the inhibition at 0.03 µM is over 50%. Besides, the IC50 in assay [2] (Homo sapiens) was over 10000 nM; in assay [3] (Homo sapiens, MV4-11, 72 h), under 30 nM.

In the case of `Cn1ncc2ccc(-c3n[nH]c4c3Cc3sc(-c5csc(C(=O)N6CCOCC6)c5)cc3-4)cc21` [Compound 48, (4-(3-(1-methyl-1H-indazol-6-yl)-1,4-dihydro-thieno[2′,3′:4,5]cyclopenta [1,2-c]pyrazol-6-yl)thiophen-2-yl) (morpholino)methanone], the inhibition at 0.03 µM in assay [1] is over 50%. Also, the IC50 in assay [2] (Homo sapiens) is over 10000 nM; in assay [3] (Homo sapiens, MV4-11, 72 h), under 30 nM.

With `CN(C)C(=O)c1ccc(-c2cc3c(s2)Cc2c(-c4ccc5cnn(C)c5c4)n[nH]c2-3)cc1` [Compound 49, N,N-dimethyl-4-(3-(1-methyl-1H-indazol-6-yl)-1,4-dihydrothieno [2′,3′:4,5]cyclopenta [1,2-c]pyrazol-6-yl) benzamide], the inhibition at 0.03 µM in assay [1] was over 50%. The IC50 was over 10000 nM in assay [2] (Homo sapiens) and under 30 nM in assay [3] (Homo sapiens, MV4-11, 72 h).

As to `CN(C)S(=O)(=O)c1ccc(-c2cc3c(s2)Cc2c(-c4ccc5cnn(C)c5c4)n[nH]c2-3)cc1` [Compound 50, N,N-dimethyl-4-(3-(1-methyl-1H-indazol-6-yl)-1,4-dihydrothieno [2′,3′:4,5]cyclopenta [1,2-c]pyrazol-6-yl) benzenesulfonamide], the inhibition at 0.03 µM in assay [1] is over 50%. For the same molecule, the IC50 in assay [2] (Homo sapiens) was over 10000 nM; in assay [3] (Homo sapiens, MV4-11, 72 h) it was under 30 nM.

Take `Cn1ncc2ccc(-c3n[nH]c4c3Cc3sc(-c5ccc(CN6CCOCC6)s5)cc3-4)cc21` [Compound 51, 4-((5-(3-(1-methyl-1H-indazol-6-yl)-1,4-dihydro-thieno[2′,3′:4,5]cyclopenta [1,2-c]pyrazol-6-yl)thiophen-2-yl)methyl) morpholine]: the inhibition at 0.03 µM in assay [1] is over 50%. For the same molecule, the IC50 in assay [2] (Homo sapiens) is over 10000 nM; in assay [3] (Homo sapiens, MV4-11, 72 h), under 30 nM.

For `Cn1ncc2ccc(-c3n[nH]c4c3Cc3sc(-c5csc(CN6CCOCC6)c5)cc3-4)cc21` [Compound 52, 4-((4-(3-(1-methyl-1H-indazol-6-yl)-1,4-dihydro-thieno[2′,3′:4,5]cyclopenta [1,2-c]pyrazol-6-yl)thiophen-2-yl)methyl) morpholine], the inhibition at 0.03 µM in assay [1] was over 50%. Further, the IC50 in assay [2] (Homo sapiens) was over 10000 nM; in assay [3] (Homo sapiens, MV4-11, 72 h), under 30 nM.

For `Cn1ncc2ccc(-c3n[nH]c4c3Cc3sc(-c5cc(F)c(CN6CCOCC6)c(F)c5)cc3-4)cc21` [Compound 53, 4-(2,6-difluoro-4-(3-(1-methyl-1H-indazol-6-yl)-1,4-dihydrothieno [2′,3′:4,5]cyclopenta [1,2-c]pyrazol-6-yl)benzyl)morpholine], in assay [1], the inhibition at 0.03 µM is over 50%. Further, the IC50 in assay [2] (Homo sapiens) is over 10000 nM; in assay [3] (Homo sapiens, MV4-11, 72 h) it was 30 to 100 nM.
